Where a chain is given by its changes, count along the chain named. Where two headings read alike, the source gives them in different places.
Legend:
M1 receptor = biological target: T1, M1 receptor (Rattus norvegicus, UniProt P08482); assay: M1 PAM assay (FLIPR intracellular calcium), rat; type: cell-based
T1 construct: expressed in transfected cells
T1 sequence (P08482 1-460): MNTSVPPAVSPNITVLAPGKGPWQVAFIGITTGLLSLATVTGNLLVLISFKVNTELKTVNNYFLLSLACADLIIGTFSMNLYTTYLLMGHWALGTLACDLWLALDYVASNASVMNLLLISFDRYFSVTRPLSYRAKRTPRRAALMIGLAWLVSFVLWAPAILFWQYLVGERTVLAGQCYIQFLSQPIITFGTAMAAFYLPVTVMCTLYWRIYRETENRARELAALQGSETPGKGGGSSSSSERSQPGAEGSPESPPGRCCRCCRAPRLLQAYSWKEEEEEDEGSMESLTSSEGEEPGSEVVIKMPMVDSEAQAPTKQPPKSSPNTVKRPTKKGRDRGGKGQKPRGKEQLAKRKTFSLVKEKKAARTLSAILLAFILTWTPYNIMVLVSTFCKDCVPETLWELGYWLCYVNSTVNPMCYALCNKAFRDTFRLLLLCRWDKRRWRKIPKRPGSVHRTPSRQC

human M1 = biological target: T2, human M1 (Homo sapiens, UniProt P11229); assay: M1 PAM assay (FLIPR intracellular calcium, CHO human M1); type: cell-based
T2 construct: expressed in transfected cells; host or cells: CHO cells
T2 sequence (P11229 1-460): T1 sequence (P08482 1-460) with V5A, S254T, S309P, K320R, G337A, V413I
Experimental: The assay study the effect of several concentrations of test compounds on basal or acetylcholine-stimulated Ca^2+ levels using FLIPR. CHO human M1 are plated the day before the experiments at 2×10^5 cells/ml in PDL BioCoat 96 well black/clear plate (Becton 35 4640). The cells are grown at 37° C. and 5% CO2 in the following medium: F12 Nut Mix (Gibco 21765), 10% FCS heat inactivated (GIBCO 16000-044), 1% Pen Strep (Gibco, 15140) and 200 μg/ml Geneticin (Gibco 11811). On the day of the experiment, the medium was removed and replaced by 100 μl of dye loading buffer containing Hanks Balanced Salt solution (HBSS, 14065-049, Gibco) with 20 mM HEPES (Gibco 15630-056), 2 mM Probenicid (Sigma P8761), […] (Molecular Probes F-14202), 10% Pluronic acid Molecular Probes P-3000) pH=7.4 and incubated at 37° C. After 60 minutes extracellular dye was removed and the cells were washed five times with FLIPR buffer containing HBSS (Gibco 14065-049) with 20 mM HEPES (Gibco, 15630-056), 2 mM Probenicid (Sigma P8761) pre-warmed at 37° C. using and Ebml cell washer leaving 100 μl of FLIPR buffer in each well. The cell plate and the diluted compounds (1% DMSO final concentration) are placed on the platform of the FLIPR and the door closed. A signal test to check background fluorescence and basal fluorescence signal is performed. Laser intensity is adjusted if necessary. Two minutes preincubation with the diluted test compounds is provide to determine any agonist activity on the M1 receptor by comparison to 30 nM Acetylcholine control. In order to determine any modulator activity the diluted compounds were added to cells and after two minutes preincubation, the EC20 of acetylcholine is added followed by another two minutes preincubation before the measurement of intracellular Ca^2+ with a FLIPR (Molecular Devices).

[1] = rat, modulator activity with EC20 of acetylcholine, FLIPR Ca2+, read-out: EC50 rat PAM
[2] = human M1 in CHO cells, modulator activity with EC20 of acetylcholine, FLIPR Ca2+, read-out: EC50 h PAM

SMILES	EC50 (M1 receptor; [1])	EC50 (human M1; [2])	EC50 (M1 receptor)	EC50 (human M1)
Cn1cc(-c2ccc(Cn3cc(C(=O)N[C@H]4CCCC[C@@H]4F)c4ncccc43)c(F)c2)cn1 (racemic) [Example 58, 1-(2-fluoro-4-(1-methyl-1H-pyrazol-4-yl)benzyl)-N-((1SR,2SR)-2-fluorocyclohexyl)-1H-pyrrolo[3,2-b]pyridine-3-carboxamide]	453 nM	239 nM		
Cn1cc(-c2ccc(Cn3cc(C(=O)N[C@H]4CCOC[C@@H]4O)c4ncccc43)c(F)c2)cn1 (single isomer, unassigned) [Example 59, 1-[[2-fluoro-4-(1-methylpyrazol-4-yl)phenyl]methyl]-N-[(3R,4S) or (3S,4R)-3-hydroxyoxan-4-yl]pyrrolo[3,2-b]pyridine-3-carboxamide]			18 nM	15.5 nM
NC(=O)c1ccc(Cn2cc(C(=O)N[C@@H]3CCOC[C@H]3O)c3ncccc32)cc1 (stereo in doubt) [Example 63a, 1-(4-Carbamoylbenzyl)-N-((3S,4R)-3-hydroxytetrahydro-2H-pyran-4-yl)-1H-pyrrolo[3,2-b]pyridine-3-carboxamide]			661 nM	289 nM
NC(=O)c1ccc(Cn2cc(C(=O)N[C@H]3CCOC[C@@H]3O)c3ncccc32)cc1 (stereo in doubt) [Example 63b, 1-(4-carbamoylbenzyl)-N-((3R,4S)-3-hydroxytetrahydro-2H-pyran-4-yl)-1H-pyrrolo[3,2-b]pyridine-3-carboxamide]			47 nM	13 nM
O=C(N[C@H]1CCCC[C@@H]1O)c1cn(Cc2cc(Br)ccc2F)c2cccnc12 [Example 1, 1-(5-bromo-2-fluorobenzyl)-N-((1S,2S)-2-hydroxycyclohexyl)-1H-pyrrolo[3,2b]pyridine-3-carboxamide]			1950 nM	545 nM
Cn1cc(-c2ccc(Cn3cc(C(=O)N[C@H]4CCCC[C@@H]4O)c4ncccc43)c(F)c2)cn1 [Example 2, 1-(2-fluoro-4-(1-methyl-1H-pyrazol-4-yl)benzyl)-N-((1S,2S)-2-hydroxycyclohexyl)-1H-pyrrolo[3,2-b]pyridine-3-carboxamide]	34.7 nM	9.86 nM		
Cn1cc(-c2ccc(Cn3cc(C(=O)N[C@@H]4CCCC[C@H]4O)c4ncccc43)c(F)c2)cn1 [Example 3, 1-(2-fluoro-4-(1-methyl-1H-pyrazol-4-yl)benzyl)-N-((1R,2R)-2-hydroxycyclohexyl)-1H-pyrrolo[3,2-b]pyridine-3-carboxamide]			131 nM	101 nM
O=C(N[C@H]1CCCC[C@@H]1O)c1cn(Cc2ccc(Cl)nc2)c2cccnc12 [Example 5, 1-((6-chloropyridin-3-yl)methyl)-N-((1S,2S)-2-hydroxycyclohexyl)-1H-pyrrolo[3,2-b]pyridine-3-carboxamide]			2320 nM	489 nM
Cn1cc(-c2ccc(Cn3nc(C(=O)N[C@H]4CCCC[C@@H]4O)c4ncccc43)c(F)c2)cn1 [Example 6, 1-(2-fluoro-4-(1-methyl-1H-pyrazol-4-yl)benzyl)-N-((1S,2S)-2-hydroxycyclohexyl)-1H-pyrazolo[4,3-b]pyridine-3-carboxamide]	71.5 nM	25.3 nM		
C[C@@H](CO)NC(=O)c1cn(Cc2ccc(-c3cnn(C)c3)cc2F)c2cccnc12 [Example 8, 1-[2-Fluoro-4-(1-methyl-1H-pyrazol-4-yl)-benzyl]-1H-pyrrolo[3,2-b]pyridine-3-carboxylic acid ((S)-2-hydroxy-1-methyl-ethyl)-amide]			695 nM	248 nM
Cn1cc(-c2ccc(Cn3cc(C(=O)NCC(C)(C)O)c4ncccc43)c(F)c2)cn1 [Example 11, 1-[2-Fluoro-4-(1-methyl-1H-pyrazol-4-yl)-benzyl]-1H-pyrrolo[3,2-b]pyridine-3-carboxylic acid (2-hydroxy-2-methyl-propyl)-amide]			616 nM	317 nM
CC[C@@H](CO)NC(=O)c1cn(Cc2ccc(-c3cnn(C)c3)cc2F)c2cccnc12 [Example 12, 1-[2-Fluoro-4-(1-methyl-1H-pyrazol-4-yl)-benzyl]-1H-pyrrolo[3,2-b]pyridine-3-carboxylic acid ((S)-1-hydroxymethyl-propyl)-amide]			244 nM	129 nM
CCC(CO)NC(=O)c1cn(Cc2ccc(-c3cnn(C)c3)cc2F)c2cccnc12 (stereo not drawn) [Example 13, 1-[2-Fluoro-4-(1-methyl-1H-pyrazol-4-yl)-benzyl]-1H-pyrrolo[3,2-b]pyridine-3-carboxylic acid (1-hydroxymethyl-propyl)-amide]			632 nM	195 nM
CCC(O)CNC(=O)c1cn(Cc2ccc(-c3cnn(C)c3)cc2F)c2cccnc12 (stereo not drawn) [Example 14, 1-[2-Fluoro-4-(1-methyl-1H-pyrazol-4-yl)-benzyl]-1H-pyrrolo[3,2-b]pyridine-3-carboxylic acid (2-hydroxy-butyl)-amide]	155 nM	100 nM		
Cn1cc(-c2ccc(Cn3cc(C(=O)N[C@H]4CCC[C@@H]4O)c4ncccc43)c(F)c2)cn1 [Example 17, 1-[2-Fluoro-4-(1-methyl-1H-pyrazol-4-yl)-benzyl]-1H-pyrrolo[3,2-b]pyridine-3-carboxylic acid ((1S,2S)-2-hydroxy-cyclopentyl)-amide]			272 nM	64.9 nM
Cn1cc(-c2ccc(Cn3cc(C(=O)N[C@H]4CCC[C@H]4O)c4ncccc43)c(F)c2)cn1 [Example 18, 1-[2-Fluoro-4-(1-methyl-1H-pyrazol-4-yl)-benzyl]-1H-pyrrolo[3,2-b]pyridine-3-carboxylic acid ((1S,2R)-2-hydroxy-cyclopentyl)-amide]			195 nM	96 nM
CC(C)[C@@H](CO)NC(=O)c1cn(Cc2ccc(-c3cnn(C)c3)cc2F)c2cccnc12 [Example 19, 1-[2-Fluoro-4-(1-methyl-1H-pyrazol-4-yl)-benzyl]-1H-pyrrolo[3,2-b]pyridine-3-carboxylic acid ((S)-1-hydroxymethyl-2-methyl-propyl)-amide]			285 nM	178 nM
CCCC(CO)NC(=O)c1cn(Cc2ccc(-c3cnn(C)c3)cc2F)c2cccnc12 (stereo not drawn) [Example 20, 1-[2-Fluoro-4-(1-methyl-1H-pyrazol-4-yl)-benzyl]-1H-pyrrolo[3,2-b]pyridine-3-carboxylic acid (1-hydroxymethyl-butyl)-amide]			499 nM	199 nM
CC(C)C(CO)NC(=O)c1cn(Cc2ccc(-c3cnn(C)c3)cc2F)c2cccnc12 (stereo not drawn) [Example 22, 1-[2-Fluoro-4-(1-methyl-1H-pyrazol-4-yl)-benzyl]-1H-pyrrolo[3,2-b]pyridine-3-carboxylic acid (1-hydroxymethyl-2-methyl-propyl)-amide]			381 nM	183 nM
Cn1cc(-c2ccc(Cn3cc(C(=O)NCC4(O)CCCC4)c4ncccc43)c(F)c2)cn1 [Example 24, 1-[2-Fluoro-4-(1-methyl-1H-pyrazol-4-yl)-benzyl]-1H-pyrrolo[3,2-b]pyridine-3-carboxylic acid (1-hydroxy-cyclopentylmethyl)-amide]	261 nM	193 nM		
CC[C@H](C)[C@@H](CO)NC(=O)c1cn(Cc2ccc(-c3cnn(C)c3)cc2F)c2cccnc12 [Example 26, 1-[2-Fluoro-4-(1-methyl-1H-pyrazol-4-yl)-benzyl]-1H-pyrrolo[3,2-b]pyridine-3-carboxylic acid ((1S,2S)-1-hydroxymethyl-2-methyl-butyl)-amide]	302 nM	143 nM		
